Assay results as given in patent US10770169B2, “Method of providing a treatment to a subject based on a dynamic pathway map” (THE REGENTS OF THE UNIVERSITY OF CALIFORNIA, priority 2010, dated 2020).
Read-outs that look alike come from different tables or passages of the source.

Tested on: panel of 55 breast cancer cell lines
Assay: Cell growth inhibition assay (Cell Titer Glo, 72 h, 9 doses; GI50, TGI, LC50)
Assay type: cell-based, human

Work on `O=C1NC(=O)/C(=C/c2ccc(-c3ccc(F)cc3O)o2)S1` [AS-252424] yielded a GI50 (AU565 cell line, censored GI50 values, value is the negative log10 of mol/L) of 4.87, a GI50 (BT20 cell line, censored GI50 values, value is the negative log10 of mol/L) of 4.65 and a GI50 (BT474 cell line, censored GI50 values, value is the negative log10 of mol/L) of 5.36. The GI50 (BT483 cell line, censored GI50 values, value is the negative log10 of mol/L) was 5.37, the GI50 (HCC1187 cell line, censored GI50 values, value is the negative log10 of mol/L) was 5.78 and the GI50 (HCC1419 cell line, censored GI50 values, value is the negative log10 of mol/L) was 4.69. The GI50 (HCC1428 cell line, censored GI50 values, value is the negative log10 of mol/L) was 5.31, the GI50 (HCC1500 cell line, censored GI50 values, value is the negative log10 of mol/L) was 5.24 and the GI50 (HCC1806 cell line, censored GI50 values, value is the negative log10 of mol/L) was 5.15. The GI50 (HCC1954 cell line, censored GI50 values, value is the negative log10 of mol/L) was 5.46, the GI50 (HCC2185 cell line, censored GI50 values, value is the negative log10 of mol/L) was 4.46 and the GI50 (MCF7 cell line, censored GI50 values, value is the negative log10 of mol/L) was 4.80. It also gave a GI50 (MDAMB175VII cell line, censored GI50 values, value is the negative log10 of mol/L) of 4.61, a GI50 (MDAMB361 cell line, censored GI50 values, value is the negative log10 of mol/L) of 4.71 and a GI50 (MDAMB436 cell line, censored GI50 values, value is the negative log10 of mol/L) of 4.74. For the same molecule, the GI50 (MDAMB453 cell line, censored GI50 values, value is the negative log10 of mol/L) was 4.69, the GI50 (SKBR3 cell line, censored GI50 values, value is the negative log10 of mol/L) was 4.40 and the GI50 (SUM52PE cell line, censored GI50 values, value is the negative log10 of mol/L) was 4.44. It also gave a GI50 (SUM149PT cell line, censored GI50 values, value is the negative log10 of mol/L) of 4.66, a GI50 (SUM185PE cell line, censored GI50 values, value is the negative log10 of mol/L) of 5.27 and a GI50 (SUM225CWN cell line, censored GI50 values, value is the negative log10 of mol/L) of 5.02. It also gave a GI50 (SUM1315MO2 cell line, censored GI50 values, value is the negative log10 of mol/L) of 4.75, a GI50 (T47D cell line, censored GI50 values, value is the negative log10 of mol/L) of 5.25 and a GI50 (UACC812 cell line, censored GI50 values, value is the negative log10 of mol/L) of 4.88. For the same molecule, the GI50 (ZR75B cell line, censored GI50 values, value is the negative log10 of mol/L) was 4.65, the GI50 (ZR751 cell line, censored GI50 values, value is the negative log10 of mol/L) was 5.20 and the GI50 (cell line AU565, value is the negative log10 of mol/L) was 4.87. For the same molecule, the GI50 (cell line BT20, value is the negative log10 of mol/L) was 4.65, the GI50 (cell line BT474, value is the negative log10 of mol/L) was 5.36 and the GI50 (cell line BT483, value is the negative log10 of mol/L) was 5.37. The GI50 (cell line CAMA1, value is the negative log10 of mol/L) was 4.18, the GI50 (cell line HCC70, value is the negative log10 of mol/L) was 4.67 and the GI50 (cell line HCC1187, value is the negative log10 of mol/L) was 5.78. For the same molecule, the GI50 (cell line HCC1419, value is the negative log10 of mol/L) was 4.69, the GI50 (cell line HCC1428, value is the negative log10 of mol/L) was 5.31 and the GI50 (cell line HCC1500, value is the negative log10 of mol/L) was 5.24. For the same molecule, the GI50 (cell line HCC1806, value is the negative log10 of mol/L) was 5.15, the GI50 (cell line HCC1937, value is the negative log10 of mol/L) was 4.18 and the GI50 (cell line HCC1954, value is the negative log10 of mol/L) was 5.46. For the same molecule, the GI50 (cell line HCC2185, value is the negative log10 of mol/L) was 4.46, the GI50 (cell line HCC3153, value is the negative log10 of mol/L) was 4.48 and the GI50 (cell line LY2, value is the negative log10 of mol/L) was 4.51. It also gave a GI50 (cell line MCF7, value is the negative log10 of mol/L) of 4.80, a GI50 (cell line MDAMB134V, value is the negative log10 of mol/L) of 4.30 and a GI50 (cell line MDAMB175V, value is the negative log10 of mol/L) of 4.61. The GI50 (cell line MDAMB361, value is the negative log10 of mol/L) was 4.71, the GI50 (cell line MDAMB436, value is the negative log10 of mol/L) was 4.74 and the GI50 (cell line MDAMB453, value is the negative log10 of mol/L) was 4.69. The GI50 (cell line MDAMB468, value is the negative log10 of mol/L) was 4.18, the GI50 (cell line SKBR3, value is the negative log10 of mol/L) was 4.40 and the GI50 (cell line SUM52PE, value is the negative log10 of mol/L) was 4.44. The GI50 (cell line SUM149PT, value is the negative log10 of mol/L) was 4.66, the GI50 (cell line SUM185PE, value is the negative log10 of mol/L) was 5.27 and the GI50 (cell line SUM225CWN, value is the negative log10 of mol/L) was 5.02. It also gave a GI50 (cell line SUM1315MO, value is the negative log10 of mol/L) of 4.75, a GI50 (cell line T47D, value is the negative log10 of mol/L) of 5.25 and a GI50 (cell line UACC812, value is the negative log10 of mol/L) of 4.88. The GI50 (cell line ZR75B, value is the negative log10 of mol/L) was 4.65 and the GI50 (cell line ZR751, value is the negative log10 of mol/L) was 5.20.

For `Cn1cnc2c(F)c(Nc3ccc(Br)cc3Cl)c(C(=O)NOCCO)cc21` [AZD6244], the GI50 (Homo sapiens, BT-20, cell line BT20, read-out: GI50 (converted)) was 50.1 µM, the GI50 (Homo sapiens, BT-474, cell line BT474, read-out: GI50 (converted)) was 50.1 µM and the GI50 (Homo sapiens, BT-483, cell line BT483, read-out: GI50 (converted)) was 50.1 µM. For the same molecule, the GI50 (Homo sapiens, CAMA-1, cell line CAMA1, read-out: GI50 (converted)) was 50.1 µM, the GI50 (Homo sapiens, HCC38, cell line HCC38, read-out: GI50 (converted)) was 50.1 µM and the GI50 (Homo sapiens, HCC1395, HCC1395 cell line, censored GI50 values, read-out: GI50 (converted)) was 28.8 µM. The GI50 (Homo sapiens, HCC1395, cell line HCC1395, read-out: GI50 (converted)) was 28.8 µM, the GI50 (Homo sapiens, HCC1419, HCC1419 cell line, censored GI50 values, read-out: GI50 (converted)) was 17.8 µM and the GI50 (Homo sapiens, HCC1419, cell line HCC1419, read-out: GI50 (converted)) was 17.8 µM. For the same molecule, the GI50 (Homo sapiens, HCC1428, cell line HCC1428, read-out: GI50 (converted)) was 50.1 µM, the GI50 (Homo sapiens, HCC1500, cell line HCC1500, read-out: GI50 (converted)) was 50.1 µM and the GI50 (Homo sapiens, HCC1806, cell line HCC1806, read-out: GI50 (converted)) was 50.1 µM. The GI50 (Homo sapiens, HCC1937, cell line HCC1937, read-out: GI50 (converted)) was 50.1 µM, the GI50 (Homo sapiens, HCC1954, HCC1954 cell line, censored GI50 values, read-out: GI50 (converted)) was 1.45 µM and the GI50 (Homo sapiens, HCC1954, cell line HCC1954, read-out: GI50 (converted)) was 1.45 µM. The GI50 (Homo sapiens, MCF7, cell line MCF7, read-out: GI50 (converted)) was 50.1 µM, the GI50 (Homo sapiens, MDA-MB-134-VI, MDAMB134VI cell line, censored GI50 values, read-out: GI50 (converted)) was 1.17 µM and the GI50 (Homo sapiens, MDA-MB-175-VII, MDAMB175VII cell line, censored GI50 values, read-out: GI50 (converted)) was 2.57 µM. It also gave a GI50 (Homo sapiens, MDA-MB-231, cell line MDAMB231, read-out: GI50 (converted)) of 50.1 µM, a GI50 (Homo sapiens, MDA-MB-361, cell line MDAMB361, read-out: GI50 (converted)) of 50.1 µM and a GI50 (Homo sapiens, MDA-MB-415, cell line MDAMB415, read-out: GI50 (converted)) of 50.1 µM. For the same molecule, the GI50 (Homo sapiens, MDA-MB-436, cell line MDAMB436, read-out: GI50 (converted)) was 50.1 µM, the GI50 (Homo sapiens, MDA-MB-453, cell line MDAMB453, read-out: GI50 (converted)) was 50.1 µM and the GI50 (Homo sapiens, MDA-MB-468, cell line MDAMB468, read-out: GI50 (converted)) was 50.1 µM. The GI50 (Homo sapiens, SK-BR-3, cell line SKBR3, read-out: GI50 (converted)) was 50.1 µM, the GI50 (Homo sapiens, SUM52PE, SUM52PE cell line, censored GI50 values, read-out: GI50 (converted)) was 9.77 µM and the GI50 (Homo sapiens, SUM52PE, cell line SUM52PE, read-out: GI50 (converted)) was 9.77 µM. For the same molecule, the GI50 (Homo sapiens, SUM149PT, SUM149PT cell line, censored GI50 values, read-out: GI50 (converted)) was 0.525 µM, the GI50 (Homo sapiens, SUM149PT, cell line SUM149PT, read-out: GI50 (converted)) was 0.525 µM and the GI50 (Homo sapiens, SUM185PE, cell line SUM185PE, read-out: GI50 (converted)) was 50.1 µM. For the same molecule, the GI50 (Homo sapiens, SUM1315MO2, SUM1315MO2 cell line, censored GI50 values, read-out: GI50 (converted)) was 7.59 µM, the GI50 (Homo sapiens, T47D, cell line T47D, read-out: GI50 (converted)) was 50.1 µM and the GI50 (Homo sapiens, ZR-75-1, ZR751 cell line, censored GI50 values, read-out: GI50 (converted)) was 6.17 µM. It also gave a GI50 (Homo sapiens, ZR-75-1, cell line ZR751, read-out: GI50 (converted)) of 6.17 µM, a GI50 (Homo sapiens, ZR-75B, cell line ZR75B, read-out: GI50 (converted)) of 50.1 µM and a GI50 (Homo sapiens, cell line HCC2185, read-out: GI50 (converted)) of 50.1 µM. It also gave a GI50 (Homo sapiens, cell line MDAMB134V, read-out: GI50 (converted)) of 1.17 µM, a GI50 (Homo sapiens, cell line MDAMB175V, read-out: GI50 (converted)) of 2.57 µM and a GI50 (Homo sapiens, cell line SUM1315MO, read-out: GI50 (converted)) of 7.59 µM.
